Laboratory results published in patent US20140315889A1, “HYDROXAMATE DERIVATIVES FOR HDAC INHIBITOR, AND THE PHARMACEUTICAL COMPOSITION COMPRISING THEREOF” (CHONG KUN DANG PHARMACEUTICAL CORP., priority 2011, published 2014).
Like-named read-outs stand apart in the source and are kept apart here.

Legend:
Assay type in all cases: biochemical
[1] = target: HDAC4 (Homo sapiens, UniProt P56524); experiment: HDAC enzyme activity test, HDAC4; details: Table 11, eleven HDAC isozymes; read-out: Inhibition ability (IC50) against HDAC4
Description: (§1) Then, 0.3 μg of enzyme and 10 μM of substrate per well were added, reacted at 30° C. for 60 minutes. Thereto, Fluor de Lys® Developer II (BML-KI176) was added and reacted for 30 minutes. […] From the data, the respective IC50 were calculated by GraphPad Prism 4.0 program.

[2] = target: HDAC5 (Homo sapiens, UniProt Q9UQL6); experiment: HDAC enzyme activity test, HDAC5; details: Table 11, eleven HDAC isozymes; read-out: Inhibition ability (IC50) against HDAC5
Description: as §1

[3] = target: T1, HDAC8 (Homo sapiens, UniProt Q9BY41); experiment: HDAC enzyme activity test, HDAC8; details: Table 11, eleven HDAC isozymes; read-out: Inhibition ability (IC50) against HDAC8
T1 sequence (Q9BY41 1-377): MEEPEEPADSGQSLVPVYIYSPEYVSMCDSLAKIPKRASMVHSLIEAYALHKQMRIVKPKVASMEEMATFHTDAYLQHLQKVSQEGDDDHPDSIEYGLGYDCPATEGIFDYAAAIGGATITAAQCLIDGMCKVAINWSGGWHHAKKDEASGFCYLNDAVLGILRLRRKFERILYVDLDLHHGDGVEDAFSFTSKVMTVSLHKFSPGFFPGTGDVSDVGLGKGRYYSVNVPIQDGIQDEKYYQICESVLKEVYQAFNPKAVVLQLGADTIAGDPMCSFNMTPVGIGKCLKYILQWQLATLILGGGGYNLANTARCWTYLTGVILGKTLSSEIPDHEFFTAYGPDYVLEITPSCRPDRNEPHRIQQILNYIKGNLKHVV
Description: as §1

[4] = target: T2, human recombinant HDAC6 (Homo sapiens, UniProt Q9UBN7); experiment: HDAC enzyme activity test, HDAC6; details: for Selectivity for HDAC6, HD1/HD6: ratio HDAC1 IC50 / HDAC6 IC50
T2 construct: purchased Calibiochem Co. (so in the source) 382180
T2 sequence (Q9UBN7 1-1215): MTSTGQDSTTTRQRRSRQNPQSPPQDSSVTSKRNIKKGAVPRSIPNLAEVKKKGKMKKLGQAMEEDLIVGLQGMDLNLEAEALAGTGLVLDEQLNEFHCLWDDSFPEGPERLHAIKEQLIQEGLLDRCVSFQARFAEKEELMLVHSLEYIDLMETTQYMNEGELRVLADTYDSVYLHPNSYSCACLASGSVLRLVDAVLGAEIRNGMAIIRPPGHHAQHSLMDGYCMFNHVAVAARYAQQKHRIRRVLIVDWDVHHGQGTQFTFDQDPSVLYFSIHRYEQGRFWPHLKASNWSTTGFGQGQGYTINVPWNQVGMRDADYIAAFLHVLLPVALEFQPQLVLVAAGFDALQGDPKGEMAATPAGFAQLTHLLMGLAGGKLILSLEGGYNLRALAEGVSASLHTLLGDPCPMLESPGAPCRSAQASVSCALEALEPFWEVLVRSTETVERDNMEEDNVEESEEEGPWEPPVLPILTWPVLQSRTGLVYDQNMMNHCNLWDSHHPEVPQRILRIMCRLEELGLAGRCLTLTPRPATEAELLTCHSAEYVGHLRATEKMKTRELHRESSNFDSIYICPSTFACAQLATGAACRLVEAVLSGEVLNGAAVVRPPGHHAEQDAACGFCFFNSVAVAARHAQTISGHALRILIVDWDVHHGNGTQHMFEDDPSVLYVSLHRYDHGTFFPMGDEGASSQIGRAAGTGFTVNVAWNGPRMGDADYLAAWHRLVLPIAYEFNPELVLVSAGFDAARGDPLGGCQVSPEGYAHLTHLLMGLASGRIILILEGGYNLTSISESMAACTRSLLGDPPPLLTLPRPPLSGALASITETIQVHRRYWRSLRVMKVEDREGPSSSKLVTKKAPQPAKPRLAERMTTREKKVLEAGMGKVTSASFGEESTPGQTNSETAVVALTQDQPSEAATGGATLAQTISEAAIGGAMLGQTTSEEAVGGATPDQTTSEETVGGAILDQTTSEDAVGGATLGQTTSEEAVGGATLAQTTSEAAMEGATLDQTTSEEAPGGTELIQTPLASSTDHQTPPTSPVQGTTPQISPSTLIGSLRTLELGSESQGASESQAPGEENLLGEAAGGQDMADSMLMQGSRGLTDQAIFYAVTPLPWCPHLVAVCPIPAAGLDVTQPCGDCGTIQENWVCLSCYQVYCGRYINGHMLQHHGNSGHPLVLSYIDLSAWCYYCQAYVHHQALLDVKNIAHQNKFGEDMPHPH
Description: as §1

[5] = target: T3, HDAC10 (Homo sapiens, UniProt Q969S8); experiment: HDAC enzyme activity test, HDAC10; details: Table 11, eleven HDAC isozymes; read-out: Inhibition ability (IC50) against HDAC10
T3 sequence (Q969S8 1-669): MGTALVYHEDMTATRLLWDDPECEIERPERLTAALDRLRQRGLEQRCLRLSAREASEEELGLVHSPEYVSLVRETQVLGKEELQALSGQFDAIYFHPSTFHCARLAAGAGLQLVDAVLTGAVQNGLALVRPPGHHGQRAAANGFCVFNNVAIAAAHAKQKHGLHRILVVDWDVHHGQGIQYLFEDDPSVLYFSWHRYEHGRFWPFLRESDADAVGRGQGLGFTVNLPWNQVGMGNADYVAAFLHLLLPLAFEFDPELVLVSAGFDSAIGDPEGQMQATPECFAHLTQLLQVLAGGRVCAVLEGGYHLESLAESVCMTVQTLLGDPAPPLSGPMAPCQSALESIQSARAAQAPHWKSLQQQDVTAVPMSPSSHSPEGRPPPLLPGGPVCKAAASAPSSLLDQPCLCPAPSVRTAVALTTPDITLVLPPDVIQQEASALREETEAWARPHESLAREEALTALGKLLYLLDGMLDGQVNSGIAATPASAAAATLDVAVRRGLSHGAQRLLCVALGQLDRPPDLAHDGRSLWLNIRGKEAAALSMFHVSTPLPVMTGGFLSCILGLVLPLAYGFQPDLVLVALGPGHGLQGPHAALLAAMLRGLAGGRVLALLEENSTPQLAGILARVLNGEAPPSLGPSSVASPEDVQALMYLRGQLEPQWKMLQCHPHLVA
Description: as §1

[6] = Table 11, eleven HDAC isozymes, read-out: Inhibition ability (IC50) against HDAC6
[7] = Table 12, read-out: Inhibition ability (IC50) HDAC6

Sequence of HDAC5 (Q9UQL6 whole entry, species assumed): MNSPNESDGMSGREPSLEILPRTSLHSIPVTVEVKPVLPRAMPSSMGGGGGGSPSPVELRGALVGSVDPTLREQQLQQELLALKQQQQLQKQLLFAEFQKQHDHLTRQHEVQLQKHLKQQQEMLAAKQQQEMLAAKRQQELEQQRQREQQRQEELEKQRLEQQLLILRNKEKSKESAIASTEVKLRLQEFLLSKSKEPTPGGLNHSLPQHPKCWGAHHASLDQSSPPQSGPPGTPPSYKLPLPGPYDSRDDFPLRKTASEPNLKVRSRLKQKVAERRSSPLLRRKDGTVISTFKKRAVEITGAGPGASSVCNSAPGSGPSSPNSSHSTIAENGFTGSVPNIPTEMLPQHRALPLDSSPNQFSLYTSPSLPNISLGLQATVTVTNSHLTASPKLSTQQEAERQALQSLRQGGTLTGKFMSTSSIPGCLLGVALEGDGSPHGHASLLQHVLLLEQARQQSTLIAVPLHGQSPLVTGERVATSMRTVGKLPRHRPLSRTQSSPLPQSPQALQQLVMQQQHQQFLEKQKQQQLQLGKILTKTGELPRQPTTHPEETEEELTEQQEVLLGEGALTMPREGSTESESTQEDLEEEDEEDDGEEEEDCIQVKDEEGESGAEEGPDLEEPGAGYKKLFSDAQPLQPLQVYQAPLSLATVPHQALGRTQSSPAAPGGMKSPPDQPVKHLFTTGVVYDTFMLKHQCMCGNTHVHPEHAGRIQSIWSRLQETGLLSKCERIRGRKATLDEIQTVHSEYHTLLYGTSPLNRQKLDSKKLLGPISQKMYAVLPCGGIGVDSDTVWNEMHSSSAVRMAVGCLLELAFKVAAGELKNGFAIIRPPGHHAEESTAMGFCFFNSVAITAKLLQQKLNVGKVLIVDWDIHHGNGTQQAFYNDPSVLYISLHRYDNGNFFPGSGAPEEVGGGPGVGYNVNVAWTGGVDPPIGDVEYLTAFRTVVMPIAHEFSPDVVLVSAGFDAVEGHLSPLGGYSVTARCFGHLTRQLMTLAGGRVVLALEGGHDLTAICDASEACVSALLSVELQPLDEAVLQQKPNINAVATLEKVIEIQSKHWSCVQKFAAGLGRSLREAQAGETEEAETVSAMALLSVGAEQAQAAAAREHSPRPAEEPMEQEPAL
Sequence of HDAC4 (P56524 whole entry, species assumed): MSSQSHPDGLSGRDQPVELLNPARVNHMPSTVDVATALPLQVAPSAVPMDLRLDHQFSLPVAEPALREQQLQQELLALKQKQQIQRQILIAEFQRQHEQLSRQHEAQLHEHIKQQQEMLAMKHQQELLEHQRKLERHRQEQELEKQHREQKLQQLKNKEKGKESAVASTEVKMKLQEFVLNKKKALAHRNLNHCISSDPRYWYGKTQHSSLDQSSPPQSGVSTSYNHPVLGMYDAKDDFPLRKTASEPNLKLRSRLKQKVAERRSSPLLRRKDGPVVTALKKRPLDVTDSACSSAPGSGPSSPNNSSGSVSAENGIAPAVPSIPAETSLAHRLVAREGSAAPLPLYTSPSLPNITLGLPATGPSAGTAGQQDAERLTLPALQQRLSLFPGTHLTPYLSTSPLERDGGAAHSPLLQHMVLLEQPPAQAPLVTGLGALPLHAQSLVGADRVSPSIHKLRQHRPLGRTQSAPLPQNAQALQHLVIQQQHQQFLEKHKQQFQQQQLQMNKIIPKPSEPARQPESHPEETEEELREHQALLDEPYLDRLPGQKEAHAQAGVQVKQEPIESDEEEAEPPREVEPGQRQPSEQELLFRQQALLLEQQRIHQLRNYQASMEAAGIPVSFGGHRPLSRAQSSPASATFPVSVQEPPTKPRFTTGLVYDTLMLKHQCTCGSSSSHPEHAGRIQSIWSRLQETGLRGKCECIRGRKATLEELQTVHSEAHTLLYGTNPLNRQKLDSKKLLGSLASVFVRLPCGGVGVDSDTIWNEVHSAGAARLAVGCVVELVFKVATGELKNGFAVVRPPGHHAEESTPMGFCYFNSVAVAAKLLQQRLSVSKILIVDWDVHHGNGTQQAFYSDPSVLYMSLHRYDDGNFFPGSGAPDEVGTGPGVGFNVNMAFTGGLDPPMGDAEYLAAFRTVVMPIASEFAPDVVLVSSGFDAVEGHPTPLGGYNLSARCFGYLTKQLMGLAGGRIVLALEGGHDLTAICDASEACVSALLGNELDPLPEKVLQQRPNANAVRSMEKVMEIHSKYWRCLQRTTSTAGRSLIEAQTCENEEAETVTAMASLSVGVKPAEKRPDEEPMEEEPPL

| SMILES | IC50 [1] | IC50 [2] | IC50 [3] | IC50 [4, 6] | IC50 [5] | Selectivity for HDAC6, HD1/HD6 ([4]; Table 12) | IC50 [4, 7] | IC50 ([4]; data of Table 11, read-out: IC50 against HDAC6) | selectivity for HDAC6 over HDAC1 ([4]; from the data of Table 11) | selectivity for HDAC6 over HDAC1 ([4]; from the data of Table 12) |
| --- | --- | --- | --- | --- | --- | --- | --- | --- | --- | --- |
| CN1CCN(C(=O)N(CCCCCCC(=O)NO)c2ccc(-c3ccc4cnn(C)c4c3)cc2)CC1 [CKD-581, reference compound] | 1680 nM | 1.09 nM | 86.1 nM | 2.39 nM | 2.66 nM |  |  |  |  |  |
| O=C(NO)c1ccc(Cn2c3c(c4ccccc42)C(=O)C(CN2CCOCC2)CC3)cc1 (stereo not drawn) [Compound 87, N-hydroxy-4-((3-(morpholinomethyl)-4-oxo-1,2,3,4-tetrahydrocarbazol-9-yl)methyl)benzamide] | 934 nM | 5080 nM | 1280 nM | 13.1 nM | 15300 nM | 411.8 | 7.45 nM | 13 nM | more than 800 times |  |
| CN1CCN(CC2CCc3c(c4cc(F)ccc4n3Cc3ccc(C(=O)NO)cc3)C2=O)CC1 (stereo not drawn) [Compound 142, 4-((6-fluoro-3-((4-methylpiperazin-1-yl)methyl)-4-oxo-1,2,3,4-tetrahydrocarbazol-9-yl)methyl)-N-hydroxybenzamide] | 2210 nM | 4270 nM | 1060 nM | 3.55 nM | 37000 nM | 568.3 | 4.7 nM |  |  |  |
| CC1(C)CC(=O)c2c(C(F)(F)F)nn(Cc3ccc(C(=O)NO)cc3)c2C1 [Compound 237, 4-((6,6-dimethyl-4-oxo-3-(trifluoromethyl)-4,5,6,7-tetrahydro-1H-indazol-1-yl)methyl)-N-hydroxybenzamide] | 4990 nM | 16000 nM | 3930 nM | 32.2 nM | 76100 nM | 219.3 | 17.8 nM |  |  | more than 219 times |
| O=C(NO)c1ccc(Cn2c3c(c4ccccc42)C(=O)N(CCN2CCOCC2)CC3)cc1 [Compound 249, N-hydroxy-4-((2-(2-morpholinoethyl)-1-oxo-1,2,3,4-tetrahydropyrido[4,3-b]indol-5-yl)methyl)benzamide] | 255 nM | 4620 nM | 220 nM | 5.09 nM | 53000 nM | 162.2 | 21.3 nM |  |  |  |
